According to patent US12060347B2 (BRISTOL-MYERS SQUIBB COMPANY, priority 2016, dated 2024):

Molecular target: T1, human PAR4 (Homo sapiens, UniProt Q96RI0)
T1 construct: expressed in transfected cells; host or cells: HEK293 PAR4 Clone 1.2A (BMS Arctic ID 383940)
T1 sequence (Q96RI0 18-385): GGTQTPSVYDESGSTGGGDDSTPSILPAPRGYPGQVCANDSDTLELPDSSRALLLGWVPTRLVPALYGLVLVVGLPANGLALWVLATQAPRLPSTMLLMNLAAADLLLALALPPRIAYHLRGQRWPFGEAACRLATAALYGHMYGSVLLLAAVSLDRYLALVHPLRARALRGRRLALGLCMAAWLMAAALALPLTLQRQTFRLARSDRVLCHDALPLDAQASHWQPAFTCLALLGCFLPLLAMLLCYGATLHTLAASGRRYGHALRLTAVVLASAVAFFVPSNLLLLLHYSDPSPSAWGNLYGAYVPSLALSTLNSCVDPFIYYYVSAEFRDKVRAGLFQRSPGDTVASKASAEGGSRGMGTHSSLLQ
Experiment: PAR4 FLIPR assay: antagonism of agonist-peptide-induced calcium mobilization in PAR4-expressing HEK293 cells
Format: cell-based
Settings: H-Ala-Phe(4-F)-[…]NH2-induced intracellular calcium mobilization, 11-point curves

| Compound | IC50 |
| --- | --- |
| COc1cnc2c(-c3nc4c(Cl)cncc4s3)cc(C)cc2n1 [Example 151, 7-chloro-2-(2-methoxy-7-methylquinoxalin-5-yl)thiazolo[5,4-c]pyridine] | 2000 nM |
| COc1cnc2c(-c3nc4c(Cl)c(F)c(OCCOC(=O)Nc5cn[nH]c5)cc4s3)cc(C)cc2n1 [Example 364, 2-((4-chloro-5-fluoro-2-(2-methoxy-7-methylquinoxalin-5-yl)benzo[d]thiazol-6-yl)oxy)ethyl 1H-pyrazol-4-ylcarbamate] | 19 nM |
| COc1cnc2c(-c3nc4c(F)c(F)c(OC)cc4s3)cc(C#N)cc2n1 [Example 217, 8-(4,5-difluoro-6-methoxybenzo[d]thiazol-2-yl)-3-methoxyquinoxaline-6-carbonitrile] | 18 nM |
| Cc1cc(-c2nc3cccc(CNS(=O)(=O)c4ccccc4)c3s2)c2ncc(OC(F)F)nc2c1 [Example 66, N-((2-(2-(difluoromethoxy)-7-methylquinoxalin-5-yl)benzo[d]thiazol-7-yl)methyl)benzenesulfonamide] | 28 nM |
| COc1cnc2c(-c3nc4c(Cl)c(F)c(OC[C@@H](C)OC(=O)Nc5nnc(C)s5)cc4s3)cc(C)cc2n1 [Example 370, (R)-1-((4-chloro-5-fluoro-2-(2-methoxy-7-methylquinoxalin-5-yl)benzo[d]thiazol-6-yl)oxy)propan-2-yl (5-methyl-1,3,4-thiadiazol-2-yl)carbamate] | 5.8 nM |
| COc1cc(C(O)C2(C)CCOCC2)c2nc(-c3cc(C)cc4nc(OC)cnc34)sc2c1 (stereo not drawn) [Example 674, (6-methoxy-2-(2-methoxy-7-methylquinoxalin-5-yl)benzo[d]thiazol-4-yl)(4-methyltetrahydro-2H-pyran-4-yl)methanol] | 20 nM |
| COCc1cnc2c(-c3nc4c(F)c(F)c(OCCNS(=O)(=O)c5cccc(F)c5)cc4s3)cc(C)cc2n1 [Example 317, N-(2-((4,5-difluoro-2-(2-(methoxymethyl)-7-methylquinoxalin-5-yl)benzo[d]thiazol-6-yl)oxy)ethyl)-3-fluorobenzenesulfonamide] | 4.5 nM |
| COc1cnc2c(-c3nc4cc(F)c(OC[C@@H](C)OC(=O)NCCC(N)=O)cc4s3)cc(C)cc2n1 [Example 352, (R)-1-((5-fluoro-2-(2-methoxy-7-methylquinoxalin-5-yl)benzo[d]thiazol-6-yl)oxy)propan-2-yl (3-amino-3-oxopropyl) carbamate] | 390 nM |

These reach a lower IC50. Values come first.

| IC50 | Compound |
| --- | --- |
| 1.1 nM | COc1cnc2c(-c3nc4cc(F)c(OC[C@@H](C)OC(=O)Nc5cnc(OCCO)nc5)cc4s3)cc(C)cc2n1 [Example 555, (R)-1-((5-fluoro-2-(2-methoxy-7-methylquinoxalin-5-yl)benzo[d]thiazol-6-yl)oxy)propan-2-yl (2-(2-hydroxyethoxy)pyrimidin-5-yl)carbamate] |
| 0.7 nM | CNC(=O)c1cc(NC(=O)O[C@H](C)[C@H](C)Oc2cc3sc(-c4cc(C)cc5nc(OC)cnc45)nc3cc2F)ccn1 [Example 466, (2R,3S)-3-((5-fluoro-2-(2-methoxy-7-methylquinoxalin-5-yl)benzo[d]thiazol-6-yl)oxy)butan-2-yl (2-(methylcarbamoyl)pyridin-4-yl)carbamate] |
| 0.7 nM | COc1cnc2c(-c3nc4cc(F)c(O[C@@H](C)[C@@H](C)OC(=O)Nc5cnc(C(=O)NCC6(O)CCC6)nc5)cc4s3)cc(C)cc2n1 [Example 463, (2R,3S)-3-((5-fluoro-2-(2-methoxy-7-methylquinoxalin-5-yl)benzo[d]thiazol-6-yl)oxy)butan-2-yl (2-(((1-hydroxycyclobutyl)methyl)carbamoyl)pyrimidin-5-yl)carbamate] |
| 0.5 nM | COCc1cnc2c(-c3nc4c(C(O)c5ccccc5)cc(OC)cc4s3)cc(C)cc2n1 (single isomer, unassigned) [Example 163, (6-methoxy-2-(2-(methoxymethyl)-7-methylquinoxalin-5-yl)benzo[d]thiazol-4-yl)(phenyl)methanol] |
